In the case of `O=[N+]([O-])/N=C1\NCCN1Cc1ccc(Cl)nc1`, the solubility (mole fraction) (in 1,2-dichloroethane, 299.96 K) is reported as 0.00987, the solubility (mole fraction) (in 1,2-dichloroethane, 302.87 K) is reported as 0.0108 and the solubility (mole fraction) (in 1,2-dichloroethane, 304.97 K) is reported as 0.0116. For the same compound, the solubility (mole fraction) (in 1,2-dichloroethane, 310.08 K) was 0.0142, the solubility (mole fraction) (in 1,2-dichloroethane, 314.14 K) was 0.0161 and the solubility (mole fraction) (in 1,2-dichloroethane, 317.43 K) was 0.0183. The solubility (mole fraction) (in 1,2-dichloroethane, 321.31 K) was 0.0213, the solubility (mole fraction) (in 1,2-dichloroethane, 325.67 K) was 0.0243 and the solubility (mole fraction) (in 1,2-dichloroethane, 328.74 K) was 0.0271. For the same compound, the solubility (mole fraction) (in 1,2-dichloroethane, 331.34 K) was 0.0309, the solubility (mole fraction) (in 1,2-dichloroethane, 333.75 K) was 0.0345 and the solubility (mole fraction) (in 1,2-dichloroethane, 336.91 K) was 0.0392. For the same compound, the solubility (mole fraction) (in 1,2-dichloroethane, 339.95 K) was 0.0442, the solubility (mole fraction) (in 1,2-dichloroethane, 342.81 K) was 0.049 and the solubility (mole fraction) (in 1,2-dichloroethane, 345.2 K) was 0.0546. The solubility (mole fraction) (in 1,2-dichloroethane, 347.1 K) was 0.0612, the solubility (mole fraction) (in 2-butanone, 293.07 K) was 0.0159 and the solubility (mole fraction) (in 2-butanone, 299.44 K) was 0.0192. It also gave a solubility (mole fraction) (in 2-butanone, 302.54 K) of 0.0213, a solubility (mole fraction) (in 2-butanone, 306.3 K) of 0.0238 and a solubility (mole fraction) (in 2-butanone, 308.85 K) of 0.026. It also gave a solubility (mole fraction) (in 2-butanone, 311.24 K) of 0.0281, a solubility (mole fraction) (in 2-butanone, 314.22 K) of 0.0308 and a solubility (mole fraction) (in 2-butanone, 318.19 K) of 0.0346. It also gave a solubility (mole fraction) (in 2-butanone, 320.83 K) of 0.0379, a solubility (mole fraction) (in 2-butanone, 323.87 K) of 0.0419 and a solubility (mole fraction) (in 2-butanone, 326.73 K) of 0.046. For the same compound, the solubility (mole fraction) (in 2-butanone, 329.81 K) was 0.0504, the solubility (mole fraction) (in 2-butanone, 332.97 K) was 0.0573 and the solubility (mole fraction) (in 2-butanone, 335.21 K) was 0.0617. For the same compound, the solubility (mole fraction) (in 2-butanone, 337.54 K) was 0.0678, the solubility (mole fraction) (in 2-butanone, 340.65 K) was 0.0749 and the solubility (mole fraction) (in 2-butanone, 343.2 K) was 0.0823. For the same compound, the solubility (mole fraction) (in acetone, 294.64 K) was 0.012, the solubility (mole fraction) (in acetone, 300.05 K) was 0.0141 and the solubility (mole fraction) (in acetone, 301.76 K) was 0.0148. For the same compound, the solubility (mole fraction) (in acetone, 305.05 K) was 0.0162, the solubility (mole fraction) (in acetone, 307.77 K) was 0.0175 and the solubility (mole fraction) (in acetone, 310.17 K) was 0.0187. The solubility (mole fraction) (in acetone, 317.25 K) was 0.0232, the solubility (mole fraction) (in acetone, 319.14 K) was 0.0248 and the solubility (mole fraction) (in acetone, 321.59 K) was 0.0265. For the same compound, the solubility (mole fraction) (in acetone, 327.89 K) was 0.0325, the solubility (mole fraction) (in acetone, 330.2 K) was 0.0353 and the solubility (mole fraction) (in chloroform, 292.04 K) was 0.00848. For the same compound, the solubility (mole fraction) (in chloroform, 294.49 K) was 0.00916, the solubility (mole fraction) (in chloroform, 298.22 K) was 0.0102 and the solubility (mole fraction) (in chloroform, 303.84 K) was 0.0115. The solubility (mole fraction) (in chloroform, 307.04 K) was 0.0123, the solubility (mole fraction) (in chloroform, 310.05 K) was 0.0132 and the solubility (mole fraction) (in chloroform, 314.03 K) was 0.0143. It also gave a solubility (mole fraction) (in chloroform, 316.75 K) of 0.0153, a solubility (mole fraction) (in chloroform, 319.07 K) of 0.0167 and a solubility (mole fraction) (in chloroform, 321.74 K) of 0.0183. It also gave a solubility (mole fraction) (in chloroform, 324.64 K) of 0.0198, a solubility (mole fraction) (in chloroform, 326.71 K) of 0.0215 and a solubility (mole fraction) (in chloroform, 330.16 K) of 0.024. It also gave a solubility (mole fraction) (in dichloromethane, 293.97 K) of 0.0132, a solubility (mole fraction) (in dichloromethane, 295.96 K) of 0.0146 and a solubility (mole fraction) (in dichloromethane, 298 K) of 0.0157. For the same compound, the solubility (mole fraction) (in dichloromethane, 300.05 K) was 0.0166, the solubility (mole fraction) (in dichloromethane, 302.6 K) was 0.0177 and the solubility (mole fraction) (in dichloromethane, 303.99 K) was 0.0189. The solubility (mole fraction) (in dichloromethane, 305.96 K) was 0.0199, the solubility (mole fraction) (in dichloromethane, 307.8 K) was 0.0211 and the solubility (mole fraction) (in dichloromethane, 309.6 K) was 0.0223. It also gave a solubility (mole fraction) (in dichloromethane, 311.66 K) of 0.0236, a solubility (mole fraction) (in dichloromethane, 313.14 K) of 0.0248 and a solubility (mole fraction) (in dichloromethane, 313.93 K) of 0.0254. For the same compound, the solubility (mole fraction) (in ethanol, 298.69 K) was 0.000502, the solubility (mole fraction) (in ethanol, 301.12 K) was 0.000569 and the solubility (mole fraction) (in ethanol, 305.66 K) was 0.000794. The solubility (mole fraction) (in ethanol, 308.87 K) was 0.001, the solubility (mole fraction) (in ethanol, 312.34 K) was 0.00118 and the solubility (mole fraction) (in ethanol, 315.96 K) was 0.00136. It also gave a solubility (mole fraction) (in ethanol, 318.07 K) of 0.00151, a solubility (mole fraction) (in ethanol, 320.74 K) of 0.0017 and a solubility (mole fraction) (in ethanol, 323.96 K) of 0.00197. The solubility (mole fraction) (in ethanol, 327.54 K) was 0.00225, the solubility (mole fraction) (in ethanol, 330.06 K) was 0.00251 and the solubility (mole fraction) (in ethanol, 333.57 K) was 0.00289. It also gave a solubility (mole fraction) (in methanol, 293.79 K) of 0.00102, a solubility (mole fraction) (in methanol, 295.38 K) of 0.00111 and a solubility (mole fraction) (in methanol, 299.81 K) of 0.00136. For the same compound, the solubility (mole fraction) (in methanol, 302.15 K) was 0.00156, the solubility (mole fraction) (in methanol, 305.86 K) was 0.00179 and the solubility (mole fraction) (in methanol, 309.32 K) was 0.00211. It also gave a solubility (mole fraction) (in methanol, 312.62 K) of 0.00247, a solubility (mole fraction) (in methanol, 315.38 K) of 0.00283 and a solubility (mole fraction) (in methanol, 320.59 K) of 0.00361. The solubility (mole fraction) (in methanol, 323.37 K) was 0.00413, the solubility (mole fraction) (in methanol, 328.11 K) was 0.0053 and the solubility (mole fraction) (in methanol, 330.75 K) was 0.00598. For the same compound, the solubility (mole fraction) (in methanol, 333.34 K) was 0.00676, the solubility (mole fraction) (in water, 302.76 K) was 2.68e-05 and the solubility (mole fraction) (in water, 308.62 K) was 3.94e-05. For the same compound, the solubility (mole fraction) (in water, 314.75 K) was 4.87e-05, the solubility (mole fraction) (in water, 324.15 K) was 8.35e-05 and the solubility (mole fraction) (in water, 329.34 K) was 0.000119. The solubility (mole fraction) (in water, 330.75 K) was 0.000132, the solubility (mole fraction) (in water, 334.52 K) was 0.000169 and the solubility (mole fraction) (in water, 340.44 K) was 0.000231. For the same compound, the solubility (mole fraction) (in water, 344.57 K) was 0.000287, the solubility (mole fraction) (in water, 346.87 K) was 0.000323 and the solubility (mole fraction) (in water, 348.94 K) was 0.000363.
